Assay results from ChEMBL document CHEMBL1201862, “PubChem BioAssay data set” (2004).
The source made the active and inactive calls.

Columns and labels:
[1] = biological target: T1, Heat shock factor protein 1 (Mus musculus, UniProt P38532); experiment: HSF1 potentiators in luciferase reporter cells, confirmation, cell-based, NIH3T3, luminescence, dose retest (AID 435004); type: functional;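 also: stress induced by proteasome inhibitor MG132 added 30 min after compound; luciferase reporter driven by HSF1 response element in NIH3T3 cells; actives raise luminescence as potentiators of the MG132 stress response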
T1 sequence (P38532 whole entry): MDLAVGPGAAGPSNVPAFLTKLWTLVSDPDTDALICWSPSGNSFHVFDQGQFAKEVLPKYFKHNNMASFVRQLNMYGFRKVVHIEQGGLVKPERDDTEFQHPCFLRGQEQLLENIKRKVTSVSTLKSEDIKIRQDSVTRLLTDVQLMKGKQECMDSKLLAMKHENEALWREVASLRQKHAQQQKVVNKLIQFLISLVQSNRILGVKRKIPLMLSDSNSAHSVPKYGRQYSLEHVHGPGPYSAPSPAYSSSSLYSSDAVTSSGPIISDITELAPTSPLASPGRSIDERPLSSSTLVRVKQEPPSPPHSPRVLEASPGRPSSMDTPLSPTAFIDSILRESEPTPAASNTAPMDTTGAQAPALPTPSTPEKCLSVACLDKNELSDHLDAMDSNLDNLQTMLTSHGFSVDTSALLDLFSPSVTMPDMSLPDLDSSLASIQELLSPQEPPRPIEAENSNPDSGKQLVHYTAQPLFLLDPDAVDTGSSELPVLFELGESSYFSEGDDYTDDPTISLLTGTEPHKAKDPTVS

[2] = biological target: T2, Corticotropin-releasing factor receptor 2/Corticotropin-releasing factor-binding protein (Homo sapiens, UniProt P24387+Q13324); experiment: Dose Response confirmation of uHTS hits for small molecule antagonists of the CRF-binding protein and CRF-R2 receptor complex.; type: functional; conditions: read-out: IC50_Mean
T2 sequence (Q13324 whole entry): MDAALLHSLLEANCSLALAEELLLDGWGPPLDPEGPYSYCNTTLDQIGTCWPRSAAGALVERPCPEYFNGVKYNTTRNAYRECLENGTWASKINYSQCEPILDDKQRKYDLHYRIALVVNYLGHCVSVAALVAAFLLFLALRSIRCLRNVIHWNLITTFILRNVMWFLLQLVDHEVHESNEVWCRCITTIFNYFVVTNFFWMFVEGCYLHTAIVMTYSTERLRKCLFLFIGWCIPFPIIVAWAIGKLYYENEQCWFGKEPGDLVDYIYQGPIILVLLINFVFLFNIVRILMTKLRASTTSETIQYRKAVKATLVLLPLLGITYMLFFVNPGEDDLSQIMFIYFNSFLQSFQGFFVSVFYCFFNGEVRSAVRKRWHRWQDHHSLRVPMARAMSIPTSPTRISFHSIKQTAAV
T2 sequence (P24387 whole entry): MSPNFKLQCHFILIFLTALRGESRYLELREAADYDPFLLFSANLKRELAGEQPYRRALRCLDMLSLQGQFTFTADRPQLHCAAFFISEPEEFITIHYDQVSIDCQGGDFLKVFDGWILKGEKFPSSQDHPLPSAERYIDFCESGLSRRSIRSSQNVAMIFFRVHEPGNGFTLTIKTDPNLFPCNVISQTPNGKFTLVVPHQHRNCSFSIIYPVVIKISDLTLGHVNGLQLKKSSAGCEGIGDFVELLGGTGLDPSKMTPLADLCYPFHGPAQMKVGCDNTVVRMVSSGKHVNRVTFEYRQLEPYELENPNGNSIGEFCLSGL

[3] = biological target: T2, Corticotropin-releasing factor receptor 2/Corticotropin-releasing factor-binding protein; experiment: activators of CRF receptor 2 with binding protein – uHTS hits, confirmation (AID 602473); type: functional; conditions: read-out: EC50_Mean
[4] = biological target: T1, Heat shock factor protein 1; experiment: inhibition of MG132-induced HSE-luciferase signal, confirmation, cell-based, NIH3T3, luminescence, dose retest (AID 2382); type: functional;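 also: NIH3T3 fibroblasts with HSF1-driven luciferase reporter stressed by proteasome inhibitor MG132; luminescence from HSF1-driven luciferase expression after 8 hours of MG132 stress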
Cytochrome P450 2C9 = Cytochrome P450 2C9 (Homo sapiens, UniProt P11712)
[5] = biological target: T3, Rac GTPase-activating protein 1 (Homo sapiens, UniProt Q9H0H5); experiment: MgcRacGAP GTPase-activating activity inhibitors, confirmation, biochemical, ADP Hunter fluorescence, primary and confirmatory (AID 624330); type: functional
T3 sequence (Q9H0H5 whole entry): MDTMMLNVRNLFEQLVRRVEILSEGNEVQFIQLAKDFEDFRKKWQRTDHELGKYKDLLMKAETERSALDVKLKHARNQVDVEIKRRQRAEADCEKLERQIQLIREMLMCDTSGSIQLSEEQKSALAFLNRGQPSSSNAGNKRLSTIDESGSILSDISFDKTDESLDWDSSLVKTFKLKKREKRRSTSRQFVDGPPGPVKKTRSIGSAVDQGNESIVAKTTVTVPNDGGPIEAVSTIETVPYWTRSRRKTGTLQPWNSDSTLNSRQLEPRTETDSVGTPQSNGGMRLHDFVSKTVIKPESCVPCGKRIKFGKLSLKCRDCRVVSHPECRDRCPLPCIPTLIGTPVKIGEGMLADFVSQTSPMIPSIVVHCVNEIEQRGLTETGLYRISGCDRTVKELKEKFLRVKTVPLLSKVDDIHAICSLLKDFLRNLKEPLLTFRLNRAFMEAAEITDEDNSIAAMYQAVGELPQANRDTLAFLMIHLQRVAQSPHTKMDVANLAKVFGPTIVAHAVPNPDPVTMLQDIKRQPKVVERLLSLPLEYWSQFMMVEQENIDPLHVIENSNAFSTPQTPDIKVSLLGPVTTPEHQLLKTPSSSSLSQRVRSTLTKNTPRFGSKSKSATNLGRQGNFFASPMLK

[6] = Luminescence Cell-Based Dose Response HTS to Identify Activators of Luciferase Translation or Activity in H4 […] Cells. [Related pubchem assays: 1829 (Project Summary), 1814 (Primary HTS)]; type: functional
Cytochrome P450 3A4 = Cytochrome P450 3A4 (Homo sapiens, UniProt P08684);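 also: CYP3A4 tested as one member of a cytochrome P450 panel screen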
Chain of Cytochrome P450 3A4 (P08684 whole entry): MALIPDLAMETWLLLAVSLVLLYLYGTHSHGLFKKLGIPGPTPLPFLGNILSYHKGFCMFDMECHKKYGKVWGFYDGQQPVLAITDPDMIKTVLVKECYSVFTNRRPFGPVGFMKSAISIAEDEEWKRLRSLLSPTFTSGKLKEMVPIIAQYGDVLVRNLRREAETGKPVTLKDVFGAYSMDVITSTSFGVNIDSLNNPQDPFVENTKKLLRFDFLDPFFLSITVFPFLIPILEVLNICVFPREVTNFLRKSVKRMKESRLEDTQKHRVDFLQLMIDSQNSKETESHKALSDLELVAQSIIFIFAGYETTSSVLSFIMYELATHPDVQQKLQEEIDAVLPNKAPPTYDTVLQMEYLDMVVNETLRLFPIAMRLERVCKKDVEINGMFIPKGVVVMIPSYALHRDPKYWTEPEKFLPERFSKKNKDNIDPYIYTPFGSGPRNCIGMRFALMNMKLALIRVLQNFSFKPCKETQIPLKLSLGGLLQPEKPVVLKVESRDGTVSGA

Chain of Cytochrome P450 2C9 (P11712 whole entry): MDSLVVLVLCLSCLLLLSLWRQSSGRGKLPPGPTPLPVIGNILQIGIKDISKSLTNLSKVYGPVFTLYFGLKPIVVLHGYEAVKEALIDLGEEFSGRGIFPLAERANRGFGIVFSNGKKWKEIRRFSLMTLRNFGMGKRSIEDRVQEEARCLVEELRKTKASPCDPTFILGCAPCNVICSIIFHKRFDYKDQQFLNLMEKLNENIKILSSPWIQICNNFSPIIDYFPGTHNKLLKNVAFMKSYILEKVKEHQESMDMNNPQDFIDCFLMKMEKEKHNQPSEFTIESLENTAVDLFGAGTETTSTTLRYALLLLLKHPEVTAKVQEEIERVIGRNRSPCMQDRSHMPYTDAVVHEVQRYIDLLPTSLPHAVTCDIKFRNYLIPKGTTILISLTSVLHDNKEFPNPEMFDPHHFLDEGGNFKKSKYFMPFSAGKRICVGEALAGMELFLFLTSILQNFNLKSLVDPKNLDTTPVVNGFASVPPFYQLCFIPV

In the case of COc1ccc(C(=O)/C=C2/C(=O)Nc3ccccc32)cc1OC, the EC50 [1] was > 260 µM (inactive).

For CCC(C(=O)NCCN1CCOCC1)n1c2ccccc2c2nc(=O)cc(C)n21 (stereo unspecified), the IC50 [2] was > 47.1 µM (inactive) and the EC50 [3] was > 53 µM (inactive).

For CCOC(=O)C1CCCN(CC(=O)Nc2c(C(=O)OC)[nH]c3ccccc23)C1 (stereo unspecified), the EC50 [1] was > 260 µM (inactive).

In the case of Cc1ccc(/C=C2\Oc3cc(OC(=O)N4CCOCC4)ccc3C2=O)cc1, the EC50 [1] was > 260 µM (inactive).

For CCOC(=O)c1cn2nc(Oc3cccc(F)c3)ccc2n1, the IC50 [2] was > 47.1 µM (inactive) and the EC50 [3] was > 53 µM (inactive).

In the case of CCOC(=O)c1c(S(=O)(=O)N2CCCCC2C)c(C)n(C)c1C (stereo unspecified), the EC50 [4] was > 195 µM (not active).

For CN(C)/C=C/C(=O)c1ccc(S(=O)(=O)c2ccccc2)cc1, the EC50 [4] was > 195 µM (not active).

For CCCC[C@@H]1C[C@H]1[C@@H](NC(=O)c1ccco1)c1ccc(Cl)cc1, the EC50 [4] was > 195 µM (not active).

For COc1ccc(OC)c(CN2CCN(S(=O)(=O)c3ccc(NC(C)=O)cc3)CC2)c1, the IC50 [2] was > 47.1 µM (inactive) and the EC50 [3] was > 53 µM (inactive).

With O=C(N/N=C/CCc1ccccc1)c1ccccc1 the EC50 [1] was > 260 µM (inactive).

With OC(CNCc1ccc(F)cc1)(c1ccc(F)cc1)c1ccc(F)cc1 the EC50 [1] was > 260 µM (inactive) and the AC50 (Cytochrome P450 2C9) was 12.6 µM (inconclusive).

For Cc1cc(O)nc(SCc2nc3ccccc3c(=O)n2-c2ccccc2C)n1, the EC50 [1] was > 260 µM (inactive).

With Cc1ccc(S(=O)(=O)N2CCN(C(=O)COc3ccc(C)nc3[N+](=O)[O-])CC2)c(C)c1 the IC50 [2] was > 47.1 µM (inactive) and the EC50 [3] was > 53 µM (inactive).

For COc1ccc(Br)cc1CN1CCC(N2CCCC2)CC1, the IC50 [5] was 59.6 µM (active).

For COc1cc(/C=N/NC(=O)c2ccoc2C)ccc1O, the IC50 [5] was 27.3 µM (active).

With O=C(NCCN1CCCCC1)Nc1ccccc1Cl the EC50 [4] was > 195 µM (not active).

In the case of Cc1ccc(C(C)C)c(OCCCCN2CCNCC2)c1, the IC50 [5] was 87.9 µM (active).

For Cc1c(C(=O)N2CC(C(=O)N3CCCCC3)Oc3ccccc32)oc2ccccc12 (stereo unspecified), the IC50 [2] was > 47.1 µM (inactive) and the EC50 [3] was > 53 µM (inactive).

For CCC(=O)N1CCc2cc(S(=O)(=O)NCCC(=O)Nc3ccccc3C)ccc21, the EC50 [4] was > 195 µM (not active).

In the case of CCC(C)[C@H](NC(=O)NCc1cccc(OC)c1)C(=O)O (stereo partly specified), the EC50 [4] was > 195 µM (not active).

In the case of O=C(Nc1ccccn1)C1CCN(S(=O)(=O)c2ccc3ccccc3c2)CC1, the IC50 [2] was > 47.1 µM (inactive) and the EC50 [3] was > 53 µM (inactive).

With CC1Cc2ccccc2N1CC(=O)NC(=O)NCc1ccccc1 (stereo unspecified) the EC50 [4] was > 195 µM (not active).

In the case of COc1cc(/C=N\NC(=O)CNC(=O)C(c2ccccc2)c2ccccc2)ccc1O, the IC50 [5] was 54.6 µM (active).

For COc1ccc2nnc(-c3ccc(C(F)(F)F)cc3)n2n1, the EC50 [4] was > 195 µM (not active).

With C=CCNC(=O)c1c(C(F)(F)F)nn(C)c1Cl the EC50 [4] was > 195 µM (not active).

In the case of Cc1nn(C(=O)c2c(-c3ccccc3)noc2C)c(C)c1N=Nc1cc(C(F)(F)F)cc(C(F)(F)F)c1, the IC50 [2] was > 47.1 µM (inactive) and the EC50 [3] was > 53 µM (inactive).

With Cc1[nH]n(-c2ccccc2)c(=O)c1/C=N/CCc1ccccc1 the EC50 [1] was 85.4 µM (active).

In the case of O=C(CSc1nnnn1CCCO)Nc1ccc2c(c1)OCO2, the EC50 [4] was > 195 µM (not active).

With Cc1ccccc1-n1c(C)nnc1SCc1nc2ccccc2s1 the EC50 [6] was 33.1 µM (active).

In the case of COC(=O)CNC(c1ccccc1)c1cc(Br)ccc1N (stereo unspecified), the EC50 [1] was > 260 µM (inactive).

In the case of CCOc1ccc(OCCSc2nc(N)cc(=O)[nH]2)cc1, the IC50 [2] was > 47.1 µM (inactive) and the EC50 [3] was > 53 µM (inactive).

With COc1cc(/C=N/NC(=O)/C(=C\c2ccc3c(c2)OCO3)NC(=O)c2ccccc2)ccc1O the IC50 [5] was 79.4 µM (active).

For O=C(CN1CCN(C2CCCCC2)CC1)Nc1ccccc1-c1ccccc1, the IC50 [5] was 78.1 µM (active).

With COc1ccc(OC2C(=O)N(c3cc(C)ccc3C)C2c2ccc(OC)c(OC)c2)cc1 (stereo unspecified) the IC50 [2] was > 47.1 µM (inactive) and the EC50 [3] was > 53 µM (inactive).

With COc1cc([C@H]2OC[C@H]3[C@@H]2CO[C@H]3c2ccc(O)c(OC)c2)ccc1O [PINORESINOL] the IC50 [5] was 171 µM (active).

In the case of COc1cc(/C=C/C(=O)OCC(=O)N2CCC(Cc3ccccc3)CC2)ccc1O, the IC50 [5] was 47.7 µM (active).

With CCC(C)N(C(=O)C(F)(F)F)C(C(=O)NC1CCCCC1)c1ccncc1 (stereo unspecified) the EC50 [4] was > 195 µM (not active).

For COc1ccc(-c2noc(C(=O)NCc3ccc(F)cc3)n2)cc1OC, the IC50 [2] was > 47.1 µM (inactive) and the EC50 [3] was > 53 µM (inactive).

With O=C(COc1ccc(Cl)cc1)N1CCCC1 the EC50 [4] was > 195 µM (not active).

For Cc1onc(-c2ccccc2)c1C(=O)OCc1nnc(-c2ccccc2)o1, the EC50 [1] was > 260 µM (inactive).

In the case of COc1ccc(C)cc1NC(=O)C(NCC(O)c1ccccc1)c1ccccc1 (stereo unspecified), the IC50 [5] was 96.8 µM (active).

With CCCn1c(C)nc2c(c1=O)c1nc3ccccc3nc1n2CCC1=CCCCC1 the EC50 [1] was > 260 µM (inactive) and the AC50 (Cytochrome P450 3A4) was 3.16 µM (inconclusive).

In the case of CCOC(=O)c1c(CN2CCC(C)CC2)n(C)c2cc(Br)c(OC)cc12, the EC50 [1] was > 260 µM (inactive).

In the case of COc1cccc(C(=O)Nc2cc(C(=O)NCc3ccc(C)cc3)ccc2N2CCC3(CC2)CC(c2cccc(Br)c2)=NO3)c1, the IC50 [2] was < 0.368 µM (active) and the EC50 [3] was > 53 µM (inactive).

With CC(C)(C)c1ccc(/C=C(\C#N)C(=O)Nc2ccccn2)cc1 the EC50 [4] was > 195 µM (not active).

With Brc1ccc(-c2noc(CCc3ccccc3)n2)o1 the IC50 [2] was > 47.1 µM (inactive) and the EC50 [3] was > 53 µM (inactive).

With CCN1CCN(CCOc2ccccc2OCc2ccccc2)CC1 the IC50 [5] was 94.5 µM (active).

For COc1ccc(C)cc1NC(=O)C(=O)NNC(=O)COc1ccc(Cl)cc1, the EC50 [4] was 14.8 µM (active).

For NC(=NOC(=O)COc1ccc(Br)cc1)c1ccncc1, the IC50 [2] was > 47.1 µM (inactive) and the EC50 [3] was > 53 µM (inactive).

In the case of Cc1ccc2[nH]c3c(c2c1)CCN(C)C3, the EC50 [4] was > 195 µM (not active).

In the case of CC(=O)Nc1c(C(=O)Nc2ccc3c(c2)OCO3)oc2ccccc12, the EC50 [4] was > 195 µM (not active).

In the case of CCOc1ccccc1N1CCN(C(=O)C2CSC3(C)CCC(=O)N23)CC1 (stereo unspecified), the IC50 [2] was > 47.1 µM (inactive) and the EC50 [3] was > 53 µM (inactive).

In the case of CCN(CC)CCCN1C(=O)c2oc3ccccc3c(=O)c2C1c1cccc(OC)c1OC (stereo unspecified), the EC50 [1] was > 260 µM (inactive).

With O=C(CCCc1cccs1)Nc1ccc2c(c1)OCO2 the IC50 [2] was > 47.1 µM (inactive) and the EC50 [3] was > 53 µM (inactive).
